Assay [1] can be described thus: Late stage counterscreen for inhibitors of Trypanosoma brucei methionyl tRNA synthetase (MetRS): Luminescence-based cell-based high throughput dose response assay to identify compounds that are cytotoxic to Jurkat human T lymphocyte cells. In kind it is functional. (Counterscreens check selectivity or assay interference.)
Assay [2] is described as follows: Counterscreen for inhibitors of Trypanosoma brucei methionyl tRNA synthetase (MetRS): Luminescence-based cell-based high throughput dose response assay to identify compounds that are cytotoxic to Jurkat human T lymphocyte cells. In kind it is functional.
Assay [3] concerns the target T1, Methionyl-tRNA synthetase, putative (Trypanosoma brucei brucei, UniProt Q38C91).
T1 sequence (Q38C91 whole entry): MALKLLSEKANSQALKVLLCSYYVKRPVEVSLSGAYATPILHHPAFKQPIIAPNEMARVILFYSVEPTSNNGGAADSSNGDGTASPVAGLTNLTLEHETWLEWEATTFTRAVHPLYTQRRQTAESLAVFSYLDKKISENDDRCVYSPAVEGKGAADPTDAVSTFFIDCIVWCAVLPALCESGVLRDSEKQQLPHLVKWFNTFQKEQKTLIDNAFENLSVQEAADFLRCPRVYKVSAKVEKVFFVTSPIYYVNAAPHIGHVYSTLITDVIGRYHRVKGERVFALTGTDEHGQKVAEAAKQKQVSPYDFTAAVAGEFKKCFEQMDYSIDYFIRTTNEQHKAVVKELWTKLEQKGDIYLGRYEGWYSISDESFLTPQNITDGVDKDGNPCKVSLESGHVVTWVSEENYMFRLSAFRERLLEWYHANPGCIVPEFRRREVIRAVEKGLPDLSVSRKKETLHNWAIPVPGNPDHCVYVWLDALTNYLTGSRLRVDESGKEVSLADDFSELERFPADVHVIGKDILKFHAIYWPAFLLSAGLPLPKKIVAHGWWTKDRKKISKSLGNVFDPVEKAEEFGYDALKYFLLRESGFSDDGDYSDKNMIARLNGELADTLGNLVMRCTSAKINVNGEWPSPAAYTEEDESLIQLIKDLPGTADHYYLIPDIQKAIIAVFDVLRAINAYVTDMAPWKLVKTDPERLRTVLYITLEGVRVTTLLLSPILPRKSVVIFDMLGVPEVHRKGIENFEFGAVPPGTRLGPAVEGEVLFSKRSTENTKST
In kind it is functional, Trypanosoma brucei brucei strain 927/4 GUTat10.1.

Assay [4] concerns the target T1, Methionyl-tRNA synthetase, putative. Type of assay: functional, Trypanosoma brucei brucei strain 927/4 GUTat10.1. This is another data set of the same source.
Assay [5] can be described thus: Luminescence-based cell-based high throughput dose response assay to identify activators of the DAF-12 from the parasite S. stercoralis (ssDAF-12). In kind it is functional.
The target of a further assay is Cytochrome P450 3A4 (Homo sapiens, UniProt P08684).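 Note: CYP3A4 tested as one member of a cytochrome P450 panel screen.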
Chain of Cytochrome P450 3A4 (P08684 whole entry): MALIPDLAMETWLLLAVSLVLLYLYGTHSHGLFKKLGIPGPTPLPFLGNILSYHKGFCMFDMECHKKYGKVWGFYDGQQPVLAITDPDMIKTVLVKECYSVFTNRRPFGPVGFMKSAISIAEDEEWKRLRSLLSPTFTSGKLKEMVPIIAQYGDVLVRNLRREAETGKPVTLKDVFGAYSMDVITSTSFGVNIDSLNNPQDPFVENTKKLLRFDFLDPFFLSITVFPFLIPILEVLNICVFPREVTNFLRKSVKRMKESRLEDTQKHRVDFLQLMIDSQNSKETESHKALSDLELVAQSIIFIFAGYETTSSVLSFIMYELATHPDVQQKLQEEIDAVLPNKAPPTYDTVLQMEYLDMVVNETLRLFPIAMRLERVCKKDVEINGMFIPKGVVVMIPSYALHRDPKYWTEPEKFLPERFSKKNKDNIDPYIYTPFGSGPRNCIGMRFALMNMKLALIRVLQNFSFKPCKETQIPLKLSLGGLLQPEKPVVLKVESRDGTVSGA
The target of assay [6] is T2, Oxysterols receptor LXR-beta (Homo sapiens, UniProt P55055).
T2 sequence (P55055 whole entry): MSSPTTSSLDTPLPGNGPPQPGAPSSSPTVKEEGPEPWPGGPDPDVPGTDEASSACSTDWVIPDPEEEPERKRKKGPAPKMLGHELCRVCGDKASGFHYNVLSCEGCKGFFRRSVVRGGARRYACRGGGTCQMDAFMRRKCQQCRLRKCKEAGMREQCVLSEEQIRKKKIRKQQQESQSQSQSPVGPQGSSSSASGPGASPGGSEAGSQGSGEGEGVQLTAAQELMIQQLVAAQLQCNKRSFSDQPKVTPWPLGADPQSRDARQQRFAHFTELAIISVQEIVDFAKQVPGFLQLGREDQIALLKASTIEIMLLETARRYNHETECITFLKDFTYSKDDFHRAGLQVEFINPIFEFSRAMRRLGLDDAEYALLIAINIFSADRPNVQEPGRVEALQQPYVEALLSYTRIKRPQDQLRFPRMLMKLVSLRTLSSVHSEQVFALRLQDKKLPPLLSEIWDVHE
In kind it is functional, cell-based.

Assay [7] has as its target T2, Oxysterols receptor LXR-beta. In words: LXR agonists, Gal4 luciferase reporter, dose response, counter-screen for ssDAF-12 agonist project, cell-based, luminescence, HEK293, S. stercoralis campaign (AID 720737). Type of assay: functional. As to conditions: read-out: IC50 (the source's name). In general terms: In a reporter assay the amount or activity of a reporter protein is the signal.

The next assay has as its target T3, Protein skinhead-1 (Caenorhabditis elegans, UniProt P34707).
T3 sequence (P34707 whole entry): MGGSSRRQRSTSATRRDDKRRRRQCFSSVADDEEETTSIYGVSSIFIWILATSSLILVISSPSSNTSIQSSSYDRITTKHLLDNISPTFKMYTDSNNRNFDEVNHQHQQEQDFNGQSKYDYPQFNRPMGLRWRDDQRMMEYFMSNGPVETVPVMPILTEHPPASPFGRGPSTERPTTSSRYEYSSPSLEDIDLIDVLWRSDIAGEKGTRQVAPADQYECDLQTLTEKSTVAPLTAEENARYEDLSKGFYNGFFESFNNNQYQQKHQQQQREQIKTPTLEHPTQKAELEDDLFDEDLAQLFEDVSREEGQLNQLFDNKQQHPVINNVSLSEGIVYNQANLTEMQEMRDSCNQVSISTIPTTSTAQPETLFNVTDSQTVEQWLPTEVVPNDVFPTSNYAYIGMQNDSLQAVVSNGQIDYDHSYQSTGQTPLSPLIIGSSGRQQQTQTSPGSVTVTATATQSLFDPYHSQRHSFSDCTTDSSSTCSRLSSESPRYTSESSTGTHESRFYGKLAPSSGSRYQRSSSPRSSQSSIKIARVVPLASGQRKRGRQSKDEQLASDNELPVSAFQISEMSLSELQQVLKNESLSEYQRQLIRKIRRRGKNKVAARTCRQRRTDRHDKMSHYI
In kind it is functional.

Assay [8] can be described thus: insulin promoter down-regulators in MIN6 cells, imaging, high-content screening, mouse beta cells (AID 1628). Type of assay: functional.
Assay [9] is described as follows: cytotoxicity in MIN6 insulinoma cells, dose response, cytotoxicity control, cell-based, mouse insulinoma (AID 2122).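 Note: confirmatory high-throughput counterscreen run to flag cytotoxic compounds; mouse MIN-6 beta cells carrying an insulin promoter eGFP reporter.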 Type of assay: functional.
The nature of assay [10]: Artemis endonuclease inhibitor potency, dose response, biochemical, fluorescence intensity (AID 720701).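 Note: Artemis endonuclease enzyme.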 In kind it is functional.
In assay [11] the target is NAD-dependent protein deacylase sirtuin-5, mitochondrial (Homo sapiens, UniProt Q9NXA8). Description: SIRT5 desuccinylase inhibitors, dose response, biochemical, fluorescence imaging, cherry-pick, set 5 (AID 720591).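 Note: desuccinylation of succinyl peptide AMC substrate read as fluorescence after trypsin release; potency of inhibitors that lower fluorescence and may act on trypsin instead.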
Chain of NAD-dependent protein deacylase sirtuin-5, mitochondrial (Q9NXA8 whole entry): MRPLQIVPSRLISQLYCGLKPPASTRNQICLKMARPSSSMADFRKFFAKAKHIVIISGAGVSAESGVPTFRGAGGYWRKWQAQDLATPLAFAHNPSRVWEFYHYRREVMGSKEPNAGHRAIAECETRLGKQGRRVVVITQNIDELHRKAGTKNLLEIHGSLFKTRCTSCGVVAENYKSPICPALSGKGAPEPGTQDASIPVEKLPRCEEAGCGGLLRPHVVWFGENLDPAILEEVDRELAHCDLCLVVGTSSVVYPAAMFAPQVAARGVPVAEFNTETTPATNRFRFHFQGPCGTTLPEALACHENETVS
A short description of assay [12]: P. falciparum late gametocyte killing, dose response, luminescence (AID 1117278).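 Note: gametocytes exposed to compound for 24 hours.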 In kind it is functional, cell-based.
Assay [13] can be described thus: Jurkat T cell cytotoxicity, dose response, cytotoxicity control for P. falciparum gametocyte viability project, luminescence (AID 1117277).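 Note: potency reflects loss of cellular ATP meaning fewer viable cells.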 Type of assay: functional, cell-based.
A short description of assay [14]: TRPM1 promoter luciferase reporter signal decrease, dose response, MITF inhibitor project, cell-based, SK-MEL-5, dry powder, set 9 (AID 651588). Type of assay: functional.
Assay [15] can be described thus: MITF Measured in Cell-Based System Using Plate Reader - 2084-01_Inhibitor_Dose_DryPowder_Activity_Set7. Type of assay: functional.
Assay [16] in a line: MALME3 melanoma cell viability reduction, dose response, orthogonal assay for MITF inhibitor project, CellTiter-Glo luminescence, dry powder, set 5 (AID 651584). As to conditions: MALME-3. In kind it is functional, cell-based. For orientation: ATP-based viability assays read luminescence as a measure of living cells.
Assay [17] can be described thus: MITF Orthogonal Assay: SK-MEL-5 CTG Assay Measured in Cell-Based System Using Plate Reader - 2084-02_Inhibitor_Dose_DryPowder_Activity_Set5. Type of assay: functional.
Assay [18] in a line: cytotoxicity in primary human melanocytes, dose response, cytotoxicity control, cell-based, plate reader, dry powder (AID 651920). Type of assay: functional.
Assay [19] in a line: A375 melanoma cell cytotoxicity, dose response, counter-screen for MITF inhibitor project, CellTiter-Glo luminescence, dry powder, set 6 (AID 624488). Type of assay: functional, cell-based. The settings on record: A-375.
Assay [20] can be described thus: SK-MEL-5 parental cell viability reduction, dose response, orthogonal assay for MITF inhibitor project, CellTiter-Glo luminescence, dry powder, set 8 (AID 651586). Type of assay: functional, cell-based.
The nature of assay [21]: MITF Measured in Cell-Based System Using Plate Reader - 2084-01_Inhibitor_Dose_DryPowder_Activity_Set6. Type of assay: functional.
Assay [22] in a line: SK-MEL-5 parental line viability, dose response, MITF inhibitor project, cell-based, CellTiter-Glo, dry powder, set 6 (AID 624429). In kind it is functional.
Assay [23] is described as follows: A375 melanoma cell viability loss, dose response, counter-screen for MITF inhibitor project, CellTiter-Glo luminescence, dry powder, set 4 (AID 624364).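 Note: A375 melanoma cells are MITF independent so this is a counter screen.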 Type of assay: functional, cell-based. The settings on record: A-375.
Assay [24] can be described thus: MITF Orthogonal Assay: MALME3 CTG Assay Measured in Cell-Based System Using Plate Reader - 2084-04_Inhibitor_Dose_DryPowder_Activity_Set6. Type of assay: functional. The settings on record: MALME-3.
The nature of assay [25]: T. cruzi growth inhibition in host cells, dose response, cell-based, plate reader, dry powder, set 2 (AID 652275). Type of assay: functional.
The nature of assay [26]: T. cruzi intracellular amastigote growth inhibition, dose response, imaging, CA-I/72 strain, bovine embryo skeletal muscle, dry powder (AID 651885). Type of assay: functional, cell-based.
Assay [27] is described as follows: growth inhibition of intracellular T. cruzi, dose response, cell-based, plate reader, dry powder samples (AID 651845). Type of assay: functional.

These results are taken from ChEMBL document CHEMBL1201862, “PubChem BioAssay data set” (2004).

Structures are written as SMILES. Activity calls are given as the source filed them. Bounds are passed on as bounds.

In general, IC50 refers to the concentration at which inhibition is half-maximal. Usually AC50 stands for the concentration at which the activity in the assay is half-maximal.

With `O=C(NNC(=O)c1ccc(-n2cncn2)c([N+](=O)[O-])c1)c1ccc(Cl)cc1`, the IC50 in [1] is > 83.3 µM (inactive); in [2], 83.2 µM (inactive); in assay [3] it was 4.43 µM (active); in assay [4], 2.72 µM (active).

For `Fc1ccc(-c2cn3cc(C(F)(F)F)cc(Cl)c3n2)cc1`, the values for the IC50 (in assay [5]; on Protein skinhead-1) were > 67.5 µM (inactive) and > 100 µM (inactive), respectively. Besides, the AC50 at Cytochrome P450 3A4 was 14.1 µM (inconclusive). The EC50 (in assay [6]; in assay [7]; in “cells”) was > 67.5 µM (inactive) in each case.

In the case of `COCCNc1nc(-n2nc(C)cc2C)nc2sc3c(c12)CCCC3`, the results for the IC50 in [8], in assay [9] and in assay [10] were 2.54 µM (active), 2.1 µM (active) and 11.7 µM (active), respectively.

Take `Cc1ccc(C(=O)COC(=O)CN2C(=O)C3C4CC(C(Br)C4Br)C3C2=O)cc1` (stereo not given): the AC50 in assay [11] is > 30 µM (inactive).

As to `CC(=O)c1c(C)[nH]c(C(=O)COC(=O)C2CC2)c1C`, the IC50 in assay [12] was > 109 µM (inactive); in assay [13], > 83.2 µM (inactive).

In the case of `O=C1C(Nc2ccccc2)=C(c2ccccc2)C(=O)c2ccccc21`, the AC50 was 28.8 µM (active) in [14]; 8.71 µM (active) in [15]; 68.9 µM (active) in assay [16]; 27.6 µM (active) in assay [17]; > 70 µM (inactive) in assay [18]; > 70 µM (inactive) in assay [19]. The AC50 in assay [20] was 29.3 µM (active); in assay [21], 10.2 µM (active); in [22], 35 µM (active); in assay [23], > 70 µM (inactive); in assay [24], 68.9 µM (active).

On to `CC(C)N1C[C@H](C)[C@@H](CN(C)Cc2cccc(Cl)c2)Oc2c(NC(=O)c3ccncc3)cccc2C1=O`, for which the AC50 in assay [25] and in [27] was 0.00208 µM (active) throughout. Further, the IC50 in [26] was 0.00102 µM (active).
